Laboratory results: US20190307818A1, “NOVEL ANTIMICROBIAL COMPOSITIONS AND METHODS OF USE” (priority 2016, published 2019)

Key:
LasR [1] = target: T1, LasR (Pseudomonas aeruginosa, UniProt P25084); assay: Two plasmid E. coli LasR reporter (luciferase); type: cell-based, P. aeruginosa; details: for remaining activity at 100 µM: read-out: Percent Activity (LasR reporter); for Percent Activity (LasR reporter): inhibitor at 100 μM, relative to wild-type (100%)
T1 construct: expressed in transfected cells; host or cells: E. coli TOP10 carrying pBAD-A 6xHIS-lasR and pCS26 plasB-luxCDABE
Text: (§1) A two plasmid E. coli reporter system was constructed, in which LasR or RhlR was expressed under an arabinose inducible promoter (e.g., LasR or RhlR was cloned into a pBAD-A vector and expressed upon addition of arabinose) in the presence of a LasR-dependent or RhlR-dependent promoter fused to luciferase (e.g., cloned into a pCS26 vector). Upon the addition of arabinose and in the presence of AI, LasR or RhlR were expressed, formed a complex with the cognate AI, underwent dimerization, and activated transcription of the reporter construct. All potential inhibitors were tested at 100 μM. The percent activity was reported relative to wild-type (100%).
(§2) A sample experimental protocol for the RhlR reporter (see, e.g., Table 5A2) or for the LasR reporter (see, e.g., Table 5A1).
(§3) A clean plate was filled with water, 70% ethanol, LB, and primed with cultured cells to ensure that initial dispensing led to the appropriate volume of cells being added to the wells. 20 μL of this solution was dispensed into appropriate wells in a 384-well plate that contained small molecule antagonists. 20 μL of this solution was dispensed into wells intended for a positive control that contain only DMSO. To the culture that was saved for negative control, arabinose was added to 0.1%. An equal volume of DMSO was added to the culture, relative to the amount of AI added to the other culture. 20 μL of culture was dispensed into wells intended for a negative control that contained only DMSO and no small molecule QS inhibitors. Plates were incubated at 30° C. in the plate shaker. Plates were read using a 384 LUM/OD 600 setting on the plate reader after 4 hours of induction.
For data analysis, the average and standard deviation for each of the control groups were determined. In a screen, for each data point, the number of standard deviations from the mean was determined to determine if the inhibitor was a “hit”. In a dose response curve, for each data point, the percent inhibition was determined: 1−(X/M), where X=single data point and M=is the mean of the AI only control group. The dose response curve was then plotted as a function of % inhibition (y) v. [inhibitor] on a log scale (x).

RhlR = target: T2, RhlR (Pseudomonas aeruginosa, UniProt P54292); assay: Two plasmid E. coli RhlR reporter (luciferase); type: cell-based, P. aeruginosa; details: for remaining activity at 100 µM: read-out: Percent Activity (RhlR reporter); for Percent Activity (RhlR reporter): inhibitor at 100 μM, relative to wild-type (100%)
T2 construct: expressed in transfected cells; host or cells: E. coli TOP10 carrying pBAD-A 6xHIS-rhlR and pCS26 prhlA-luxCDABE
Text: as §1, §2
For the RhlR reporter, strains were re-streaked on LB+appropriate antibiotic before each experiment and grown overnight at 37° C. Three colonies were picked and a 3 mL overnight culture in LB+appropriate antibiotic was started. The culture was grown overnight at 37° C. The overnight culture was back-diluted 1:1000 into fresh LB+appropriate antibiotic in an appropriate volume, depending on the number of plates being screened. Each well in a 384 well plate received about 20 μL of culture. An additional 25 mL of culture was reserved for priming the plate filler. The culture was grown at 37° C. until OD600˜0.5, which took about 4 hrs. A 384-well plate was prepared. Stock concentrations of molecules (e.g., small molecule inhibitors) were 10 mM.
For a 10-point dose response for the RhlR reporter, a 1:3 dilution of molecule:DMSO (333 μL of stock molecule, 667 μL of DMSO using a 1 mL pipetteman) was used for accurate dispensing by the robot dispenser. Upon a prompt by the software, the appropriate concentration of each molecule was added. Each well was normalized with a DMSO standard to bring the total % volume of DMSO up to 1% using the robot. Plates were set aside with dispensed drugs until the cells were ready. Once the cells reached an OD600 of 0.5, an appropriate amount of cell culture was dispensed for screening into an Erlenmeyer flask. (Extra culture was saved for a negative control.) Arabinose was added to 0.1% final concentration (1:1000 dilution from stock solution), and AI was added to 10 μM (ED75) from a 10 mM stock. The components of the flask were mixed together by swirling. As mentioned previously, other concentrations of AIs may be suitable, e.g., the concentrations may be in the range of 2 uM to 100 uM, from 10 uM to 100 uM or from 2 uM to 10 uM. In some embodiments, 2 nM of 3-O—C12-HSL (for LasR) and 10 uM of C4-HSL (for RhlR) were used.
as §3
For data analysis, the average and standard deviation for each of the control groups were determined. In a screen, for each data point, the number of standard deviations from the mean was determined to determine if the inhibitor was a “hit”. In a dose response curve, for each data point, the percent inhibition was determined: 1−(X/M), where X=single data point and M=is the mean of the AI only control group. […]

LasR and RhlR = assay: Receptor specific reporter assays for LasR and RhlR activity (stated in words); type: cell-based, P. aeruginosa
Text: wherein R may be H or OH, and two or more of the R substituents of a given compound are OH; R′ is H or OH; and R″ is H or OH. […] A variety of compounds were obtained and tested for activity (e.g., inhibition of receptor specific reporter assays for LasR and RhlR activity).
as §1

LasR [2] = target: T1, LasR; assay: 10-point autoinducer dose response on LasR reporter with QS inhibitor (competition); type: cell-based, P. aeruginosa; details: inhibitor at 100 μM; increasing concentrations of AI
Method: FIG. 4. QS inhibitors bind non-competitively to LasR. A 10-point dose response curve with increasing concentrations of autoinducer 3-O—C12-HSL (AI) was generated for a variety of QS small molecule inhibitors. In this figure, curve C12 (filled circle) corresponds to the absence of inhibitor. […] Instead, the inhibitors bind elsewhere on LasR to prevent LasR-dependent transcription.
Using known molecular biology techniques, assays were performed to determine whether binding of the small molecule QS inhibitors and the AIs occurred by a competitive or by another inhibitory mechanism (see, e.g., FIG. 4).
Thus, a 10-point dose response curve with concentrations of AI ranging from 10 pM to 5 nM was generated for a variety of QS small molecule inhibitors. Curve C12 (dotted filled line) corresponds to the absence of inhibitor. […] Instead, the inhibitors bind elsewhere on LasR to prevent LasR-dependent transcription.

[3] = system: Wild-type P. aeruginosa pyocyanin production; assay: Pyocyanin virulence factor production; type: cell-based; details: 100 μM overnight, back diluted, grown 18 hrs with inhibitor
Method: FIG. 6. QS inhibitors reduce the level of virulence factor production in P. aeruginosa. The ability of the small molecule inhibitors to reduce virulence factor production by monitoring pyocyanin production was assessed.
The ability of the small molecule QS inhibitors to reduce virulence factor production by monitoring production of pyocyanin as a representative virulence factor was assessed. Wild-type P. aeruginosa was incubated with the indicated molecules at 100 μM overnight, back diluted, and grown for 18 hrs in the presence of QS inhibitor.
By varying the concentration of QS inhibitors, dose dependence curves were generated.

T2 sequence (P54292 whole entry): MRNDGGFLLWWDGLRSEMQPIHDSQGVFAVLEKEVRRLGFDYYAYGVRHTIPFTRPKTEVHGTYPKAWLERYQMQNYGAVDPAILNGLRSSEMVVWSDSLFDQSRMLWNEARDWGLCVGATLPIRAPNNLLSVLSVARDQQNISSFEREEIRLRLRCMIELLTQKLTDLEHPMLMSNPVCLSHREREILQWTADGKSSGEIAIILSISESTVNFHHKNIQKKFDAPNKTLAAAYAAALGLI
T1 sequence (P25084 whole entry): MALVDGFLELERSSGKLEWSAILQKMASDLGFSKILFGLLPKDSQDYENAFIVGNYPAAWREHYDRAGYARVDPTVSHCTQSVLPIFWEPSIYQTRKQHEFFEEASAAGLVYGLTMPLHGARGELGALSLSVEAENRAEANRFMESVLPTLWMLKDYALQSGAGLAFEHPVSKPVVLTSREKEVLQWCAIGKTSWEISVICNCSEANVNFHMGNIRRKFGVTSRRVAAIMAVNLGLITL

SMILES | remaining activity at 100 µM (LasR [1]) [%] | remaining activity at 100 µM (RhlR) [%] | activity (inhibition of receptor specific reporter assays for LasR and RhlR activity) (LasR and RhlR) | competition with autoinducer 3-O—C12-HSL for LasR (LasR [2]) | pyocyanin production [3] | Percent Activity (LasR reporter) (LasR [1]) | Percent Activity (RhlR reporter) (RhlR)
O=C(CCc1ccc(O)cc1)c1c(O)cc(O)cc1O [Molecule 1, Phloretin] | 24.1 | 68.4 | inhibit both LasR and RhlR | did not compete | inhibit pyocyanin to varying degrees |  | 
O=c1cc(-c2ccccc2)oc2cc(O)cc(O)c12 [Molecule 3, Chrysin] | 53.1 | 39.2 | inhibit both LasR and RhlR | did not compete | inhibit pyocyanin to varying degrees |  | 
O=C1CC(c2ccc(O)cc2)Oc2cc(O)cc(O)c21 (stereo not shown) [Molecule 4, Narigenin] |  |  | active |  | inhibit pyocyanin to varying degrees |  | 
O=C1CC(c2ccc(O)cc2)Oc2cc(O)cc(O)c21 (stereo not shown) [Molecule 4] | 63.3 | 60.5 |  |  |  |  | 
O=c1cc(-c2ccc(O)cc2)oc2cc(O)cc(O)c12 [Molecule 43] | 82.4 | 84.5 |  |  |  |  | 
O=c1cc(-c2ccccc2)oc2cccc(O)c12 [Molecule 44] |  |  |  |  |  | Inactive | Inactive
O=c1cc(-c2ccccc2)oc2cc(O)ccc12 [Molecule 45] |  |  |  |  |  | Inactive | Inactive
O=c1c(O)c(-c2ccc(O)c(O)c2)oc2cc(O)cc(O)c12 [Molecule 48, Quercetin] | 44.4 | 40.2 | inhibit both LasR and RhlR | did not compete | inhibit pyocyanin to varying degrees |  | 
COc1cc(OC)c2c(=O)cc(-c3ccccc3)oc2c1 [Molecule 49] |  |  |  |  |  | Inactive | Inactive
O=c1cc(-c2ccccc2)oc2ccc(O)cc12 [Molecule 50] |  |  |  |  |  | Inactive | Inactive
COc1cc(OC)c2c(=O)cc(-c3ccc(O)cc3)oc2c1 [Molecule 52] |  |  |  |  |  | Inactive | Inactive
O=c1cc(-c2ccccc2)oc2ccc(O)c(O)c12 [Molecule 53] | 16.7 | 31.8 |  |  |  |  | 
O=c1cc(-c2ccccc2)oc2c(O)c(O)ccc12 [Molecule 54] | 60.3 | 54.5 |  |  |  |  | 
O=c1c(O)c(-c2ccccc2)oc2cc(O)cc(O)c12 [Molecule 55] |  |  |  |  |  | Inactive | Inactive
